“Also recorded” adds a separate entry of the source.

The source of these data is patent US10946019B2, “Nurr1:RXR activating compounds for simultaneous treatment of symptoms and pathology of Parkinson's disease” (priority 2015, dated 2021).

One experiment concerns the target Nurr1:RXRγ heterodimer (Homo sapiens (Human), UniProt P48443). As to the kind of experiment: Nurr1:RXRγ luciferase reporter transactivation assay. The settings on record: SHSY-5Y. Type of experiment: cell-based. On the procedure: Synthesized compounds of the invention and their analogs, shown in Table 1, below, were evaluated for activity in cellular assays. The in vitro transactivation assay determined the capacity of the compounds of the invention to activate the Nurr1:RXR heterodimers. Naive SHSY-5Y cells were transiently co-transfected, using Lipofectamine 2000 (Invitrogen), with a plasmid expressing the human receptor Nurr1, a plasmid expressing the RXR human receptor (RXRα or RXRγ receptor) and a reporter plasmid DR5-TK-Luc. After 24 hours, the culture medium was changed. The test compounds were added (final concentration between 0.5, 2.5 and 12.5 μM) in the culture medium. After incubation overnight, the expression of luciferase was measured (FIG. 1A). Positive control cells were treated with XCT0135908 (1 μM; WO 2005/047268) which induces activation of the Nurr1:RXR heterodimer and results in maximal expression of luciferase. The transcription-activating activities of various compounds of the invention are shown in FIG. 1B, as well as in Table 1, below. […] Furthermore, compound 3 is selective for the Nurr1:RXRα heterodimer over the Nurr1:RXRγ heterodimer (FIG. 1D).

The subject of a further experiment is Neuro2A cells. As to the kind of experiment: MPP+ induced toxicity in Neuro2A cells. Type of experiment: cell-based. On the procedure: MPP+, eradicates approximately 75% of the cells in 24 hours. […] Naive Neuro2A cells (FIG. 2A) or SH-SY5Y neuroblastoma cells FIG. 2B,C) were cultured in RPMI 1640, 10% fetal bovine serum at 37° C. Cells were pretreated with compound 3 for 12-24 h. Subsequent change of culture medium with addition of 0, 1, 2 and 4 mM MPP+ induced cell death. MTT assays determined the relative number of surviving cells FIG. 2D).

The subject of another experiment is noradrenaline levels. As to the kind of experiment: Striatal noradrenaline levels by HPLC-ECD. Type of experiment: in vivo, mouse. The settings on record: 4 hours. On the procedure: 4 hours after dosing animals were killed by cervical dislocation, brains were removed, and the striata were dissected on ice. The samples were immediately frozen and stored at −80° C. until use. The tissues were processed for the analysis by high performance liquid chromatography (HPLC) with an electrochemical detector (ECD) (Emmanouil et al., 2006). The dissected tissues were weighed, homogenized, and deproteinized in 0.2 N perchloric acid solution containing 7.9 mM Na2S2O5 and 1.3 mM Na2EDTA. The homogenate was centrifuged at 37,000×g for 30 minutes, and the supernatant was stored at −80° C. until assayed. A reverse-phase ion-pair chromatography was used in all analyses, and the mobile phase consisted of an acetonitrile-50 mM phosphate buffer at pH 3.0, containing 5-octylsulfate sodium salt (300 mg/L) as the ion-pair reagent and (20 mg/L) Na2EDTA. Reference standards were prepared in 0.2 N perchloric acid solution containing 7.9 mM Na2S2O5 and 1.3 mM Na2EDTA. Samples were quantified by comparison of the areas under the peaks with those of reference standards using HPLC software (Chromatography Station for Windows™, Watrex International Inc., San Francisco, Calif.) (FIG. 3D).

For a further experiment, the system named is C57/BL6 mice. As to the kind of experiment: Porsolt forced swim test after chronic mild stress. Type of experiment: in vivo, mouse. The settings on record: CMS mice, 2×10 mg/kg IP spaced 2 hours apart, 4 hours after last injection. How it is done:
The chronic mild stress (CMS) procedure was applied semi randomly to each mouse and consisted of a variety of unpredictable mild environmental, social and physical stressors, including confinement in a small tube (1 hours), an empty cage without sawdust (15 hours), water and food deprivation (15 hours), food restriction (approximately 50 mg of food pellets, 3 hours), cage tilted at 45° (1-3 hours), damp sawdust (approximately 200 ml of water per 100 g of sawdust, 3 hours), paired housing in damp sawdust (18 hours), reversal of the light/dark cycle, 2-hour light/dark succession every 30 minutes, as well as light (15-17 hours) and dark (4-6 hours). Compound 3 (2×10 mg/kg spaced 2 hours apart) or vehicle control (Ethanol:PG:Saline, 10:30:60), was administered IP to mice. 4 hours after the last injection, mice were evaluated in the Porsolt forced swim test. […] Recorded behaviors for “floating” (the mouse is completely still in the water, except for isolated movements to right itself) and “swimming” (movement of all four legs with body aligned horizontally in the water) were measured (in seconds) for each mouse.

Experiment [1] deals with Nurr1 heterozygote 129/SV mice treated with MPTP. Nature of the experiment: Neuroprotection against MPTP in Nurr1 heterozygote 129/SV mice. Type of experiment: in vivo, mouse. The settings on record: Nurr1 heterozygote (Nurr1+/−) 129/SV mice. How it is done: 20 mg/kg MPTP injections were administered 4 times at the zero day of treatment, spaced 2 hours apart. 7 days after the MPTP injections there was approximately an 80% reduction in striatal projections and 40%-50% dopaminergic neuron death in the SN.

In another experiment the test system is Rat cortical neurons. As to the kind of experiment: Apoptosis of cortical neurons transfected with LRRK2-G2019S, DAPI staining. Type of experiment: cell-based. The settings on record: rat cortical neurons co-transfected with CMV-GFP and LRRK2-G2019S. From the text:
We examined the neuroprotective capability of Nurr1:RXRα heterodimer activation in SHSY-5Y cells where death was induced by either the oxidative stress related H2O2 or the mitochondria complex I inhibitor MPP+ (1-methyl-4-phenylpyridinium) (FIG. 72B). […] The protection conferred by compound 3 was Nurr1-dependent, since it was abrogated by knocking-down endogenous Nurr1 mRNA (FIGS. 1E and 72D). The neuroprotective effects of compound 3 extend to damage induced by the PD-associated mutation G2019S in the Leucine-Rich Repeat Kinase 2 (LRRK2) gene, the most common genetic defect associated with clinical PD (Tofaris et al. J. Neurosci. 26:3942-3950, 2006). Rat cortical neurons, co-transfected with CMV-GFP for identification, and CMVLRRK2-G2019S cDNAs show increased apoptosis as assessed by DAPI staining, compared to control neurons co-transfected with a LRRK2 wt cDNA.

For experiment [2], the system named is C57BL/6 mice injected unilaterally with 6-OHDA. As to the kind of experiment: Neuroprotection in the unilateral 6-OHDA mouse model. The settings on record: for reduction of apomorphine induced contralateral turns: 10 mg/kg IP every 12 hours.

Chain of Nurr1:RXRγ heterodimer (P48443 whole entry, looked up): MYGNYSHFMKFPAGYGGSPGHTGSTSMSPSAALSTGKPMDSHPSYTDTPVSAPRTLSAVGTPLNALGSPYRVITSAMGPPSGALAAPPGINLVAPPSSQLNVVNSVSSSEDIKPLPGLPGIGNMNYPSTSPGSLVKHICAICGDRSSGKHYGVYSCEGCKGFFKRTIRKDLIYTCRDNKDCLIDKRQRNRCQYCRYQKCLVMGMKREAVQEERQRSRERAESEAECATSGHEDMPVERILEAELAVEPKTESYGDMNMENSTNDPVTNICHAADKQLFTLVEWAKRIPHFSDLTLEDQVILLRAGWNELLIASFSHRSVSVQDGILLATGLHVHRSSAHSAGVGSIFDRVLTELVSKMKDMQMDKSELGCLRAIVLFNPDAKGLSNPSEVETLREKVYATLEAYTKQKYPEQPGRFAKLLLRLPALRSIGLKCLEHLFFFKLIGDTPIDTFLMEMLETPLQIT
Chain of Nurr1:RXRγ heterodimer (P43354 whole entry partner, looked up): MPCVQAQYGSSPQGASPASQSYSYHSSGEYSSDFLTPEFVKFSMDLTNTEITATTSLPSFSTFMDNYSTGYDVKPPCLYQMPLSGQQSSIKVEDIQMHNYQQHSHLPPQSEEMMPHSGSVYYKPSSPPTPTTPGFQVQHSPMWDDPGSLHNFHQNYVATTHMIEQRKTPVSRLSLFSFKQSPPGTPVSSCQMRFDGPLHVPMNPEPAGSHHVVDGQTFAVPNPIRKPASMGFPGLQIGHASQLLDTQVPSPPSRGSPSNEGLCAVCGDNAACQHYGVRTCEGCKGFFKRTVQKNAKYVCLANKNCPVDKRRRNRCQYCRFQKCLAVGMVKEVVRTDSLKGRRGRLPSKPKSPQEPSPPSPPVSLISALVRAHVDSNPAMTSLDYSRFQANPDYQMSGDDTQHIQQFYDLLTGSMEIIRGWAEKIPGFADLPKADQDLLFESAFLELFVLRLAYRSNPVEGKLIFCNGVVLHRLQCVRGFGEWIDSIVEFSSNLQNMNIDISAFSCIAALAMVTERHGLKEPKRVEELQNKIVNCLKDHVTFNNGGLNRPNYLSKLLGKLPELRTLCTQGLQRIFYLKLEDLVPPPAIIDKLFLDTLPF

Regarding `C=CCc1c(N(C)c2ccc(C(=O)O)cc2)nc(-c2ccccc2)nc1C(F)(F)F` [Example 3, 4-((5-allyl-2-phenyl-6-(trifluoromethyl)pyrimidin-4-yl)(methyl)amino)benzoic acid], at Nurr1:RXRγ heterodimer, the “activation of Nurr1:RXRγ heterodimers” value is listed as “did not activate”. For the same molecule, in the experiment with Neuro2A cells, the “protection from MPP+ induced toxicity” value is reported as “protects”. Also, the noradrenaline levels result with noradrenaline levels (IP 10 mg/kg) is “remained unaffected”; in the experiment with noradrenaline levels (wild type C57/BL6 mice, single IP 20 mg/kg), “did not increase”. In addition, the “decrease of floating time” value with C57/BL6 mice is recorded as 61.48%. The “increase of swimming time” value in the experiment with C57/BL6 mice stood at 31.7%. Further, the “neuroprotection against MPTP toxicity (surviving neuronal bodies)” value in experiment [1] was “did not lead to a statistically significant increase; also recorded: abolished”. Moreover, the “apoptosis induced by LRRK2-G2019S” value in the experiment with Rat cortical neurons is on record as “reduced apoptosis to control levels”. In addition, the “motor coordination (rotarod test)” value in experiment [2] (6-OHDA, 10 mg/kg IP every 12 hours for 14 days) is given as “almost entirely restored to control levels”. The “reduction of apomorphine induced contralateral turns” value in experiment [2] (6-OHDA, vs vehicle, listed as Compound 3) is reported as “approximately 8 fold”; in experiment [2] (6-OHDA, vs vehicle, listed as compound 3), “over 8 fold”. In experiment [2] (6-OHDA, IP 10 mg/kg every 12 hours for 15 days), the “increase in number of surviving neuronal bodies (SNpc)” value was 256.55%. For the same molecule, the “preservation of striatal TH(+) DAergic projections (innervation)” value in experiment [2] (6-OHDA, vs vehicle) stood at 10 fold. Besides, the Rotarod test improvement in experiment [2] (unilateral 6-OHDA, compound 3 vs vehicle (n=5)) turned out to be 12 fold.
